Measured values from patent US7718614B2 (Kurume University, priority 2003, dated 2010).
Values joined by “and” are separate entries in the source; they are usually repeats but may differ in a detail not shown here. Equal values may be shown once. “Also recorded” adds a separate entry of the source.

What was measured:
[1] = system: peptide-specific CTL precursors in PBMCs; assay: Peptide-specific CTL precursor assay (IFN-γ production of peptide-stimulated PBMCs), Example 1; type: cell-based, human; set-up: key to Cellular response to peptide during the combination therapy, 12th / Cellular response to peptide during the combination therapy, 6th / Cellular response to peptide during the combination therapy, Pre: Ar: p* ≦ 0.1 and 500 ≦ net**; A: p ≦ 0.05 and 50 ≦ net; B: p ≦ 0.05 and 25 ≦ net < 50; C: 0.05 < p < 0.1 and 50 ≦ net; AAAA: all four wells of quadruplicate assay were positive; AAA: three wells of quadruplicate assay were positive; AA: two wells of quadruplicate assay were positive; settings: PBMCs of the individual case; for Cellular response to peptide during the combination therapy, 12th: after 12th vaccination; for Cellular response to peptide during the combination therapy, Pre: before combination therapy, grade of each positive well of quadruplicate IFN-γ assay; for Cellular response to peptide during the combination therapy, 6th: after 6th vaccination; for Cellular response to peptide during the combination therapy, 18th: after 18th vaccination;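 on all read-outs here: PBMCs cultured with each peptide at 10 µM, restimulated at 20 µM every 3 days up to 12 days, then 18 hr with peptide-pulsed target cells, IFN-γ by ELISA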
Method: Before the first vaccination and 7 days after every 6th vaccination, 30 ml of peripheral blood was obtained, and PBMCs were isolated by means of Ficoll-Conray density gradient centrifugation. Peptide-specific CTL precursors in PBMCs were detected using a previously reported culture method [24]. Briefly, PBMCs (1×10^5 cells/well) were incubated with 10 μM of each peptide in U-bottom-type 96-well microculture plates (Nunc, Roskilde, Denmark) in 200 μl of culture medium. The culture medium contained 45% RPMI-1640 medium, 45% AIM-V™ medium (Invitrogen Corp., Carlsbad, Calif.), 10% FCS, 100 U/ml of interleukin-2 (IL-2) and 0.1 mM MEM nonessential amino acid solution (Invitrogen Corp.). Half of the medium was removed and replaced with the new medium containing a corresponding peptide (20 μM) every 3 days for up to 12 days. […] The target cells (C1R-A2402 or T2, 1×10^4/well) were pulsed with each peptide (10 μM) for 2 hr, and then effector cells (1×10^5/well) were added to each well with the final volume of 200 μl. After incubation for 18 hr, the supernatants (100 μl) were collected, and the amounts of IFN-γ were measured using an enzyme-linked immuno-sorbent assay (ELISA) (limit of sensitivity: 10 pg/ml). All experiments were performed in the four different wells with duplicate assays. […] Peptides were chosen based upon evaluation of all 4 wells by the order shown above.
Peptide-specific CTL precursors in PBMCs were detected using a previously reported culture method [24], while an ELISA was used to detect the serum IgG levels specific for the peptides administrated, as reported previously [13-15]. […] Namely, PBMCs were harvested every 2 weeks and were cultured (10^4 cells/well) for 2 days in triplicate assays with 10 μl M of phytohemagglutinin (PHA), 10 ng/ml of Epstein-Bar virus (EBV)-derived peptide with HLA-A24 or -A2 binding motif, and 10 ng/ml of two different peptides under vaccination. After 2 days in culture, the amounts of IFN-γ in cell free supernatants were measured in triplicate assays, and viable cell numbers were also counted. To avoid biases in each assay, all the PBMCs were once cryopreserved and the four different PBMCs (two from healthy donors, one from patients PBMCs harvested 2 weeks before the latest vaccination, and one from the latest vaccination) were thawed at the same time in the morning of the experiment. The PBMCs from healthy donors were from the same donors throughout the series of immunological monitoring. Responses (IFN-γ production) to PHA, EBV-peptide, and the vaccinated peptides were considered to be mediated by resting T cells, memory T cells, and activated T cells, respectively.

[2] = system: peptide-specific IgG; assay: ELISA of serum IgG specific for the administered peptides, Example 1; type: in vivo, human; set-up: key: −: absent; +: present, low titer; ++: present, high titer; settings: serum of the individual case; for Anti-peptide IgG during the combination therapy, 6th: after 6th vaccination; for Anti-peptide IgG during the combination therapy, 12th: after 12th vaccination; for Anti-peptide IgG during the combination therapy, Pre: before combination therapy; for Anti-peptide IgG during the combination therapy, 18th: after 18th vaccination

Row | Sequence | Cellular response to peptide during the combination therapy, 12th [1] | Cellular response to peptide during the combination therapy, Pre [1] | Anti-peptide IgG during the combination therapy, 6th [2] | Anti-peptide IgG during the combination therapy, 12th [2] | Anti-peptide IgG during the combination therapy, Pre [2] | Cellular response to peptide during the combination therapy, 6th [1] | Anti-peptide IgG during the combination therapy, 18th [2] | Cellular response to peptide during the combination therapy, 18th [1]
1 | ALVEFEDVL [HNRPL140-148] | ArArArA | AAC | ++ | + | − |  |  | 
2 | ASLDSDPWV [WHSC2103-111] |  |  | − |  | − |  |  | 
3 | DFMIQGGDF [CyB91-99] |  |  | − |  | − | C (0.05 < p < 0.1 and 50 ≦ net) |  | 
4 | DLLSHAFFAI [ppMAPkkk432-440] |  | ArA and A (p ≦ 0.05 and 50 ≦ net) | ++ and − (2×) and + | ++ and + (2×) | + and − (3×) | C (0.05 < p < 0.1 and 50 ≦ net); also recorded: A (p ≦ 0.05 and 50 ≦ net) | + | 
5 | DVWSFGILL [lck422-430] | C (0.05 < p < 0.1 and 50 ≦ net) | A (p ≦ 0.05 and 50 ≦ net); also recorded: Ar (p* ≦ 0.1 and 500 ≦ net**); also recorded: C (0.05 < p < 0.1 and 50 ≦ net) | + (2×) and − (4×) | + (2×) and − (3×) | − (5×) and + | C (0.05 < p < 0.1 and 50 ≦ net) and A (p ≦ 0.05 and AAA | − | C (0.05 < p < 0.1 and 50 ≦ net); also recorded: ArAAA
6 | EYCLKFTKL [ART 1170-179] | AAA | A (p ≦ 0.05 and 50 ≦ net) | ++ | ++ | ++ | C (0.05 < p < 0.1 and 50 ≦ net); also recorded: A (p ≦ 0.05 and 50 ≦ net) | ++ | A (p ≦ 0.05 and 50 ≦ net)
7 | GLLFLHTRTI [ppMAPkkk294-302] | C (0.05 < p < 0.1 and 50 ≦ net) | A (p ≦ 0.05 and 50 ≦ net) | + and − (2×) and ++ | + and − and ++ | − (3×) and + | C (0.05 < p < 0.1 and 50 ≦ net) | + and − | ArArAA
8 | ILGELREKV [WHSC2141-] |  |  | − | − | − |  |  | 
9 | KLKHYGPGWV [CypB129-138] |  | A (p ≦ 0.05 and 50 ≦ net) | − | − and + | − | A (p ≦ 0.05 and 50 ≦ net) |  | 
10 | KLVERLGAA [lck246-254] | B (p ≦ 0.05 and 25 ≦ net < 50) (2×) and ArAA | A (p ≦ 0.05 and 50 ≦ net) and ArC | ++ (4×) and − | ++ (4×) and − | ++ (3×) and − (2×) | A (p ≦ 0.05 and 50 ≦ net) | − | ArAAA
11 | LIADFLSGLI [UBE2V85-93] | A (p ≦ 0.05 and 50 ≦ net) |  | − | + | − |  | + | 
